This test has as its system hepatitis induced by concanavalin A in mice. In words: Concanavalin A (Con A) hepatitis model, plasma ALT. Format: in vivo, BALB/c male mice. The note with it: 24 hr after Con A, control group 2068±518. As to the method:
Effect in Concanavalin A (Con A) Hepatitis Model
Con A dissolved in physiological saline was intravenously administered at a dose of 20 mg/kg to BALB/c male mice (8 weeks in age) having a body weight of 21 to 25 g to induce hepatitis. A test compound (compound 7) was suspended in a mixed solution (control vehicle) composed of 25% dimethylsufoxide, 25% polyethylene glycol 400, and 0.25% carboxymethyl cellulose, and the suspension was subcutaneously administered 2 hr and 14 hr before the administration of Con A at three levels of dose, i.e., 0.2 mg/mouse, 1.0 mg/mouse, and 2.0 mg/mouse. A control vehicle alone was administered to a group of control mice. Twenty four hr after the administration of Con A, the mice were sacrificed under ether anesthesia to assay the alanine aminotransferase (ALT) activity, in plasma, as an index of hepatopathy.

Experimental findings from patent US7153979B2, “Triterpene derivatives and remedies for liver diseases” (Meiji Seika Kaisha, Ltd., priority 1996, dated 2006) are described below.

Molecules are shown by their SMILES.

Turning to `CC1(C)C[C@H]2C3=CC[C@@H]4[C@@]5(C)CC[C@H](O)[C@](C)(CO)[C@@H]5CC[C@@]4(C)[C@]3(C)CC[C@@]2(C)[C@H](O)[C@@H]1O` [Compound 7, Soyasapogenol A], the “alanine aminotransferase (ALT) activity in plasma” value (1.0 mg/mouse subcutaneously 2 hr and 14 hr before Con A 20 mg/kg i.v.) stood at 55±16 u/l; the “alanine aminotransferase (ALT) activity in plasma” value (2.0 mg/mouse subcutaneously 2 hr and 14 hr before Con A 20 mg/kg i.v.) came out at 55±16 u/l.
